# Test results as given in publication PMC10108392, “Rimonabant-Based Compounds Bearing Hydrophobic Amino Acid Derivatives as Cannabinoid Receptor Subtype 1 Ligands” (ACS Medicinal Chemistry Letters, 2023).
# Key:
# mice [1] = experiment: Hot plate test; assay type: in vivo, mouse; details: 10 μg/10 μL i.c.v., 15-120 min
# Source text: In Vivo Biological Assays
# The international and national law and policies approved by Italian Ministry of Health were used to comply with all animal care and experimental procedures. Animal studies were advised in compliance with the ARRIVE guidelines and with the recommendations made by EU Directive 2010/63/EU for animal experiments and the Basel declaration including the 3Rs concept. CD-1 male mice (10-14 weeks of age, 25-30 g of weight) were bought from Charles River (Milan, Italy). […]
# The test was carried out as previously described. […] Mice were transferred into transparent and individual plastic cages with thick white paper lining the bottom and access to a pre-measured amount of their regular lab chow (2 gr) for the 1-h test. […] The amount of food left in the trial cage, including crumbs, was measured, and the amount consumed was calculated. […]
# Thermal nociception (hot-plate test) was assessed with a commercially available apparatus consisting of a metal plate 25x25 cm (Ugo Basile, Italy) heated to a constant temperature of 55.0 ± 0.1 °C, on which a plastic cylinder (20 cm diameter, 18 cm high) was placed. The time of latency (s) was recorded from the moment the animal was placed in the cylinder on the hot plate until it licked its paws or jumped; the cut-off time was 60 s. […] The time course of latency was then determined at 15, 30, 45, 60, 90 and 120 min after compound treatment. […]
# mice [2] = experiment: Zymosan-induced paw edema; assay type: in vivo, mouse; details: 100 μg/20 μL s.c., 15 min before zymosan
# Protocol: Drugs were administered s.c. in the dorsal surface of the right hind paw at the dose of 100 μg/20 μL, 15 min before zymosan. […]
# testing. […] Then, the compounds were
# Compounds were prepared by freshly diluting
# Then, these solutions were injected for
# The total time the animal spent licking or biting its paw was calculated.
# Then, paw edema was calculated as formerly
# Paw volume was quantified using a
# Data Analysis and Statistics
# Statistically significant differences between
# Data were considered statistically
# The data and statistical analyses respected the recommendations on experimental design and analysis.
# partially satiated rats = details: cited from earlier work
# CB1R = target: T1, CB1R (Rattus norvegicus, UniProt P20272); experiment: Ligand stimulated [35S]GTPγS binding assay in rat brain membranes; assay type: biochemical; details: read-out: [35S]GTPγS stimulation Emax
# T1 construct: Crude membrane fractions were prepared from the brain; from tissue; host or cells: Wistar rat whole brain, crude membrane fraction
# Protocol: Our novel chemical compounds were tested in vitro for their binding ability, efficacy, and potency on CB1R in rat brain membrane homogenate (Table 2 and SI, Figure S1). CB1Rs are the most abundant G-protein coupled receptors in the rodent and mammalian brain; therefore, this is an appropriate model to characterize our ligands in a more physiological system.
# In Vitro Biological Assays
# Preparation of Brain Membrane Homogenates
# Wistar rats were locally bred and handled according to the EU Directive 2010/63/EU and to the Regulations on Animal Protection (40/2013. (II. 14.) Korm. r.) of Hungary. Crude membrane fractions were prepared from the brain. Brains were quickly removed from the euthanized rats and directly put in an ice-cold 50 mM Tris-HCl buffer (pH 7.4). The collected tissue was then homogenized in 30 volumes (v/w) of an ice-cold buffer with a Braun Teflon-glass homogenizer at the highest rpm. The homogenate was centrifuged at 20,000 × g for 25 min, and the resulting pellet was suspended in the same volume of a cold buffer followed by incubation at 37 °C for 30 min to remove endogenous ligands. Centrifugation was then repeated. The final pellets were taken up in five volumes of a 50 mM Tris-HCl (pH 7.4) buffer containing 0.32 M sucrose and stored at -80 °C. Prior to the experiment, aliquots were thawed and centrifuged at 20,000 ×g for 25 min and then they were resuspended in 50 mM Tris-HCl (pH 7.4), homogenized with a Douncer, followed by the determination of the protein concentration by the method of Bradford. The membrane suspensions were immediately used either in radioligand binding experiments or in [35S]GTPγS functional assays. […]
# was terminated by diluting the samples with an ice-cold wash buffer (50 mM of Tris-HCl, 2.5 mM of EGTA, 5 mM of MgCl2, 0.5% fatty acid free BSA, pH 7.4), followed by repeated washing and rapid filtration through Whatman GF/B glass fiber filters (Whatman Ltd., Maidstone, UK) pre-soaked with 0.1% polyethyleneimine (30 min before the filtration). Filtration was performed with a 24-well Brandel Cell Harvester (Gaithersburg, MD, USA). Filters were air-dried and immersed into Ultima Gold MV scintillation cocktail, and then radioactivity was measured with a TRI-CARB 2100TR liquid scintillation analyzer (Packard, Perkin Elmer, Waltham, MA, USA).
# Ligand Stimulated [35S]GTPγS Binding Assay
# Rat brain membranes (30 µg protein/tube), prepared as described above, were incubated with 0.05 nM of […]
# mM of NaCl, 3 mM of MgCl2 and 1 mM of EGTA in a 50 mM Tris-HCl buffer (pH 7.4) for 60 min at 30 °C. Basal [35S]GTPγS binding was measured in the absence of ligands and set as 100%. Nonspecific […]
# binding was determined by the addition of 10 µM unlabelled GTPγS and subtracted from total binding.
# Incubation, filtration and radioactivity measurements of the samples were carried out as described above. […]
# All […]
# data and curves were analyzed by GraphPad Prism 5.0 (San Diego, CA, USA).
# mice [3] = details: mice colitis model; cited from earlier work
# [4] = system: rats with spinal cord injury (SCI); details: repeated treatment; cited from earlier work
# T1 sequence (P20272 whole entry): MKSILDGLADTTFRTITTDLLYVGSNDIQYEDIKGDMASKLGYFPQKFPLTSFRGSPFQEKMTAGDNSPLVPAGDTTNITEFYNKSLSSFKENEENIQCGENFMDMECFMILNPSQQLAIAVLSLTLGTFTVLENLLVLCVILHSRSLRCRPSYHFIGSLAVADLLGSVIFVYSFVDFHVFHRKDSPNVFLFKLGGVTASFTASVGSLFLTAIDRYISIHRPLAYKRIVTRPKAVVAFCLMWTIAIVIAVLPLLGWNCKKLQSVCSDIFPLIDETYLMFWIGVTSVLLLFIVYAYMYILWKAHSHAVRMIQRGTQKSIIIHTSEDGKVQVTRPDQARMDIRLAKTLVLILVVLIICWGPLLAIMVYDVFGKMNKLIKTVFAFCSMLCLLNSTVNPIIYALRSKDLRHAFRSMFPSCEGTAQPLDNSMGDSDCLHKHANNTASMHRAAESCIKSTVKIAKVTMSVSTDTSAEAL
smiles,measurement,setting,value
"Cc1c(C(=O)c2cccc3ccccc23)c2cccc3c2n1[C@H](CN1CCOCC1)CO3 [WIN55,212-2]",anti-nociceptive effect in hot plate test (%MPE),mice [1],diminished immediately after administration
same,anti-inflammatory effect on zymosan-induced paw volume increase,mice [2],induced an anti-inflammatory effect
same,"food intake and motor behavior after WIN55,212-2","partially satiated rats; higher doses (5 mg/kg), partially satiated rats",inhibit the food intake and motor behavior
same,"food intake after WIN55,212-2","partially satiated rats; i.p. 1 mg/kg and 2 mg/kg, up to 6 h after the injection",hyperphagia
same,Emax,CB1R,170 ± 1.7%
same,anti-inflammatory effect in DSS-induced colitis,mice [3],acting as an anti-inflammatory drug with improved pathological changes
same,neuropathic pain-related behavior,[4],sustained decrease in neuropathic pain-related behavior
